Reference: patent publication US12617784B2, “AKT inhibitor” (Nanjing Chia Tai Tianqing Pharmaceutical Co., Ltd., priority 2019, dated 2026)

Key:
Format in all cases: biochemical
[1] = biological target: T1, AKT2 (Homo sapiens, UniProt P31751); assay: In vitro enzyme activity test (HTRF kinEASE TK), AKT2; conditions: ATP 20 μM, enzyme 0.1 ng/well, reaction 50 min
T1 construct: purchased Carna 01-102
Description: (§1) Experimental Procedure 2.1 Preparation of Reagents
(§2) 1 mL 1× Kinase Reaction Buffer of Kinase AKT1, AKT2 and AKT3 contain 200 μL 5× Kinase Reaction Buffer, 5 μL 1 M MgCl2, 1 μL 1 M DTT and 794 μL ultrapure water.
(§3) In addition to the control wells, 4 μL of the diluted compound working solutions were added to all reaction wells.
(§4) b) 2 μL of the previously prepared TK-biotin substrate solution was added to all reaction wells.
(§5) c) 2 μL of the previously prepared enzyme solution was added to all reaction wells, except the negative wells. The volume of the negative well was filled with 2 μL of enzyme corresponding to 1× kinase reaction buffer. The plate was sealed with sealing film. After mixing, the plate was incubated at room temperature for 10 min to allow the compound and enzyme to fully combined.
(§6) d) 2 μL of ATP solution was added to all reaction wells to start the kinase reaction.
(§7) e) The test solution was prepared 5 min before the end of the kinase reaction.
(§8) f) After the kinase reaction was completed, 5 μL of diluted streptavidin-XL665 were added to all reaction wells, and immediately the diluted europium-labeled tyrosine kinase substrate antibody detection solution was added after mixing.
(§9) g) The plate was sealed and mixed well. […] The inhibition rate of each well was calculated through the fully active wells and the background signal wells, taking the average value in case of multiple wells. Meanwhile, the professional drawing analysis software PRISM 6.0 was used to fit the half maximal inhibitory concentration (IC50) of each test compound.

[2] = biological target: AKT1 (Homo sapiens, UniProt P31749); assay: In vitro enzyme activity test (HTRF kinEASE TK), AKT1; conditions: ATP 2 μM, enzyme 0.6 ng/well, reaction 50 min
Sequence of AKT1 (P31749 whole entry): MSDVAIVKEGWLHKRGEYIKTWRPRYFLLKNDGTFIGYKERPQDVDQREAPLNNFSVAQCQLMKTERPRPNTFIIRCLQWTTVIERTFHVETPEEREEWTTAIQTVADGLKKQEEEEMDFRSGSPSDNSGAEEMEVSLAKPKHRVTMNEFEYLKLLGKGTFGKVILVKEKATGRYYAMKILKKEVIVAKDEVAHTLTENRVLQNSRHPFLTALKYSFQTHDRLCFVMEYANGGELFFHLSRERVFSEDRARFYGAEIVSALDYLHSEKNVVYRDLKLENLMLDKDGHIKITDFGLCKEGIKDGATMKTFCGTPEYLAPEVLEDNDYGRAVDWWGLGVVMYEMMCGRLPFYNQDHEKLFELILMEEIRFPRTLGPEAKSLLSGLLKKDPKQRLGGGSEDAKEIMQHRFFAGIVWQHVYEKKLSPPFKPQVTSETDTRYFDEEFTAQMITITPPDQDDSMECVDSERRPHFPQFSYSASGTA
Description: as §1, §2, §3, §4, §5, §6, §7, §8, §9

[3] = biological target: T2, AKT3 (Homo sapiens, UniProt Q9Y243); assay: In vitro enzyme activity test (HTRF kinEASE TK), AKT3; conditions: enzyme 0.3 ng/well, reaction 50 min
T2 construct: purchased Invitrogen PV3185
T2 sequence (Q9Y243 whole entry): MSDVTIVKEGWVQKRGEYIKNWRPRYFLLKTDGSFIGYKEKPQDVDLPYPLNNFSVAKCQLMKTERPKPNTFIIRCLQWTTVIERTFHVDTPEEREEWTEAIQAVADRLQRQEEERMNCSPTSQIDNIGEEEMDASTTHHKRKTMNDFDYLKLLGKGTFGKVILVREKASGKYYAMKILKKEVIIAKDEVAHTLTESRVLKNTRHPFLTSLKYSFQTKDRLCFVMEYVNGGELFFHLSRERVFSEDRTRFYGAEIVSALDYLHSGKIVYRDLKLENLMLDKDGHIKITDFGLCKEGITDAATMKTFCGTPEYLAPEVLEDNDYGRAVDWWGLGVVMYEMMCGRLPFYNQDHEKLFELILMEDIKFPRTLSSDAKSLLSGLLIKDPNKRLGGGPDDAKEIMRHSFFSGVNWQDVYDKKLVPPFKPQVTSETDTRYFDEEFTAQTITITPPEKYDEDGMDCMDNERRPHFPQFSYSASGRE
Description: as §1, §2, §3, §4, §5, §6, §7, §8, §9

T1 sequence (P31751 whole entry): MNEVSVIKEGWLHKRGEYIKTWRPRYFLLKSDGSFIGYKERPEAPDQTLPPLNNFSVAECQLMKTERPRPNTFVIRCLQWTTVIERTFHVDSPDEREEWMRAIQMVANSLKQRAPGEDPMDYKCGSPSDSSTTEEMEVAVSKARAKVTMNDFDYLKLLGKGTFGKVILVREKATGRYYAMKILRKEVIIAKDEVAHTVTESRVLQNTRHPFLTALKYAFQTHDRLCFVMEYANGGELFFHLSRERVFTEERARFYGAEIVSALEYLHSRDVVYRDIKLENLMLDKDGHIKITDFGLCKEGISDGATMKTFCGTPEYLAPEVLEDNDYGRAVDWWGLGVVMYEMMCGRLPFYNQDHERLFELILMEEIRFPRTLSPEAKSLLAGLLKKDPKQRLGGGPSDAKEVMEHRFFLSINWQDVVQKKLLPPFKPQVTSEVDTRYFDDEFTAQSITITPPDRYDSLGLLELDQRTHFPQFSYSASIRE

Structure (SMILES) | IC50 [1] [nM] | IC50 [2] [nM] | IC50 [3] [nM]
CC(C)NC[C@@H](C(=O)N1CC2CCC(C1)N2c1ncnc2c1[C@H](C(F)(F)F)CC(=O)N2)c1ccc(Cl)cc1 (single isomer, unassigned) [Example 25 Isomer 2] | 20 | 0.59 | 0.19
CC(C)NC[C@@H](C(=O)N1C2CCC1CN(c1ncnc3c1[C@H](C(F)(F)F)CC(=O)N3)C2)c1ccc(Cl)cc1 (single isomer, unassigned) [Example 24 Isomer 2] | ≥ 1000 | 116 | 19
C[C@@H]1CC(=O)Nc2ncnc(N3CC4CCC(C3)N4C(=O)[C@H](CNC3CC3)c3ccc(Cl)cc3)c21 [Example 38] | 23 | 2.4 | 0.28

Second part, the molecule after the results:

IC50 [1] [nM] | IC50 [2] [nM] | IC50 [3] [nM] | Structure (SMILES)
206 | 167 | 3.3 | CC(C)NCC(C(=O)N1CCN(c2ncnc3c2[C@H](C)CC(=O)N3)C[C@@H]1C)c1ccc(Cl)cc1 (stereo in doubt) [Example 9, (R)-4-((S)-4-((R)-2-(4-chlorophenyl)-3-(isopropylamino)propionyl)-3-methylpiperazin-1-yl)-5-methyl-5,8-dihydropyrido[2,3-d]pyrimidin-7(6H)-one]
4.3 | 2.4 | 0.4 | CC(C)NC[C@@H](C(=O)N1CCN(c2ncnc3c2[C@H](C)CC(=O)N3)CC1)c1ccc(Cl)cc1 [Example 2 (R) Configur- ation product, (R)-4-(4-((S)-2-(4-chlorophenyl)-3-(isopropylamino)propionyl)piperazin-1-yl)-5-methyl-5,8-dihydropyrido[2,3-d]pyrimidin-7(6H)-one]
≥ 1000 | 210 | 1.8 | CC(C)NC[C@@H](C(=O)N1C2CCC1CN(c1ncnc3c1N(CCO)CC(=O)N3)C2)c1ccc(Cl)cc1 [Example 31]
≥ 1000 | 147 | 7.4 | CC(C)NC[C@@H](C(=O)N1CCN(c2ncnc3c2N(C)CC(=O)N3)[C@@H]2C[C@@H]21)c1ccc(Cl)cc1 (single isomer, unassigned) [Example 27 Isomer 2]
